Counter-ions that a name gives are not always drawn.
Target: T1, OT receptors (OTR) in the BNSTdl (Rattus norvegicus, UniProt P70536)
T1 construct: OT (100 ng), OTA (200 ng), or ACSF (all in volume of 0.5 μl per side) was injected bilaterally into the BNSTdl; from tissue; host or cells: brain (dorsolateral bed nucleus of the stria terminalis) of live male Sprague-Dawley rats
T1 sequence (P70536 1-388): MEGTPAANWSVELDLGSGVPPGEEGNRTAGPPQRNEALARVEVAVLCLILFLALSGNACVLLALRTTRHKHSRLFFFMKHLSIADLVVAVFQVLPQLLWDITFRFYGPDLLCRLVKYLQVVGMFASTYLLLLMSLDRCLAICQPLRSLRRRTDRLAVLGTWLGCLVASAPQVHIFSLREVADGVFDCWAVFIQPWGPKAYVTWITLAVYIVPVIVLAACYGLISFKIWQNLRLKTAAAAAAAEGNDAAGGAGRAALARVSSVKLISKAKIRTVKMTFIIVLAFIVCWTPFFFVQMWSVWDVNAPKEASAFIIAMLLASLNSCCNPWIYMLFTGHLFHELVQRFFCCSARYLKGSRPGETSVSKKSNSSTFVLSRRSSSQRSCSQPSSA
Assay: Fear-potentiated startle (FPS): intra-BNSTdl OT or OTA before cued fear conditioning, then fear recall testing
Format: in vivo
Settings: for TREATMENT effect on cued fear (percentage change of startle amplitude): OT 100 ng or OTA 200 ng bilateral intra-BNSTdl 10 min before fear conditioning, recall 24 h later in context B, P=0.0981; for TREATMENT effect on cued fear (percentage change of startle amplitude) / total discrimination index (DI) for the FPS session: one-way ANOVA ACSF/OT/OTA; for total discrimination index (DI) for the FPS session: all trials, P=0.1492; for discrimination between cued and non-cued fear (summary statement): infused into the BNSTdl before fear conditioning, FPS; for TREATMENT effect on cued fear (percent change), negative controls: injection sites outside the BNST, P=0.3990; for discrimination index over four time blocks, negative controls: injection sites outside the BNSTdl, P=0.5828; for discrimination index over four time blocks, negative controls / startle amplitude, light-noise vs noise-alone trials: effect of TREATMENT: two-way repeated measures ANOVA; for mean shock reactivity during the fear conditioning session / TREATMENT effect on percentage change of contextual fear / TREATMENT effect on percentage change of non-cued fear / startle amplitude, light-noise vs noise-alone trials: effect of TREATMENT: intra-BNSTdl ACSF, OT 100 ng, OTA 200 ng; for mean shock reactivity during the fear conditioning session: P=0.8684; for TREATMENT effect on percentage change of contextual fear: context A, day 5; for TREATMENT effect on percentage change of non-cued fear: context B, P=0.8993; for startle amplitude, light-noise vs noise-alone trials: effect of TREATMENT: P=0.8478
Description: A total of 75 rats were used for FPS experiments. The ACSF-treated group consisted of 23 rats, whereas there were 14 OT and 16 OTR antagonist (OTA)-treated rats included in the main analysis. […] These rats were analyzed as negative controls.
Stereotaxic surgery technique was identical to above except that guide cannulas were implanted bilaterally instead of a microdialysis probe (Moaddab and Dabrowska, 2017).
OT (100 ng), OTA (200 ng), or ACSF (all in volume of 0.5 μl per side) was injected bilaterally into the BNSTdl through a microinjector (28-gauge, 7 mm length; Plastics One, Roanoke, Va.) as described before (Moaddab and Dabrowska, 2017). Doses of OT and OTA were chosen based on previous studies on fear and anxiety in rats (Bale et al., 2001; Toth et al., 2012; Lahoud and Maroun, 2013; Neumann and Slattery, 2016; Moaddab and Dabrowska, 2017). Rats were assigned based on a second pre-test ASR into three treatment groups. Fear conditioning sessions were performed 10 min after the intra-BNSTdl injections.
FPS procedures were modified based on previous studies and according to protocol described in detail before (Walker et al., 2009; Missig et al., 2010; Ayers et al., 2011; Moaddab and Dabrowska, 2017). On days 1 and 2, rats underwent two pre-test sessions. On day 3 (fear conditioning), animals were placed in cylindrical enclosures containing a grid floor conveying foot shocks (as above). After 5 min acclimation, animals received 10 presentations of a 3.7 s cue light (CS), each co-terminating with a 0.5 s foot shock (US; 0.5 mA, inter-trial-interval 60-180 s). Background noise was absent during the conditioning session. Enclosures and chambers were cleaned with PREempt RTU disinfectant solution (Virox Technologies, Oakville, Canada) before and after each fear […] conditioning session (context A). Twenty-four hours later, on day 4, rats were tested for FPS expression (recall test) in context B. After 5 min of acclimation, they were exposed to 50 startle-eliciting WNBs (as above) and levels of cued and non-cued fear were measured. A background white noise of 70 dB continuously played throughout the session. The session consisted of 10 baseline startle trials (excluded from the analysis) followed by an additional 40 trials, with half presented in the presence of the cue light (CS+, light-noise) and the other half without the CS (CS-, noise-alone) in a pseudorandom order (inter-trial-interval 30 s). To make context A distinct from context B, enclosures and chambers were cleaned with 70% ethanol before and after the […] (different than in fear conditioning). The grid floor was also removed from the enclosures during cued FPS testing. In addition, a different experimenter from the training session performed the FPS testing session. On day 5, the same rats were tested for contextual fear recall in context A, where after 10 baseline startle trials (excluded from the analysis), startle amplitude was measured during 40 additional CS− trials (noise-alone, inter-trial-interval 30 s, FIG. 5, C).
Startle amplitude was defined as the maximum peak voltage within the first 200 ms after onset of the WNB. Shock reactivity amplitude was recorded during the fear conditioning session and was defined as the maximum peak voltage that occurred during the 500 ms foot shock delivery. Cued, non-cued, and contextual fear, were calculated as percent change scores of startle amplitude based on previous FPS studies (Walker et al., 2009; Missig et al., 2010; Ayers et al., 2011; Moaddab and Dabrowska, 2017).

Row | Compound | discrimination index in the fourth time block of fear memory recall, vs ACSF-treated group (OT 100 ng intra-BNSTdl, Bonferroni post hoc, P=0.0121) | TREATMENT effect on cued fear (percentage change of startle amplitude) | total discrimination index (DI) for the FPS session | discrimination between cued and non-cued fear (summary statement) | TREATMENT effect on cued fear (percent change), negative controls | discrimination index over four time blocks, negative controls | mean shock reactivity during the fear conditioning session | TREATMENT effect on percentage change of contextual fear | TREATMENT effect on percentage change of non-cued fear | startle amplitude, light-noise vs noise-alone trials: effect of TREATMENT | discrimination index in the fourth time block of fear memory recall, OT vs OTA-treated groups (OT 100 ng vs OTA 200 ng intra-BNSTdl, Bonferroni post hoc, P=0.0007) | OTA effect on cued fear vs ACSF (OTA 200 ng intra-BNSTdl, un-paired t-test vs ACSF, P=0.0763)
1 | CC[C@H](C)[C@@H]1NC(=O)[C@H](Cc2ccc(O)cc2)NC(=O)[C@@H](N)CSSC[C@@H](C(=O)N2CCC[C@H]2C(=O)N[C@@H](CC(C)C)C(=O)NCC(N)=O)NC(=O)[C@H](CC(N)=O)NC(=O)[C@H](CCC(N)=O)NC1=O [OT, OT acetate salt] | significant differences in the discrimination indices | a trend in the TREATMENT effect on cued fear | not significantly different | significantly increases discrimination between cued and non-cued fear | no significant effect of TREATMENT on cued fear | no significant main effect of TREATMENT | not different | no TREATMENT effect | no TREATMENT effect | no main effect of TREATMENT |  | 
2 | (d(CH2)5^1, D-Tyr^2, Thr4, Orn8, des-Gly-NH2 9)-vasotocin trifluoroacetate salt [OTA] |  | a trend in the TREATMENT effect on cued fear | not significantly different | disables this discrimination | no significant effect of TREATMENT on cued fear | no significant main effect of TREATMENT | not different | no TREATMENT effect | no TREATMENT effect | no main effect of TREATMENT | significant differences in the discrimination indices | a trend in the OTA effect on cued fear

Reference: US11559231B2, “System and method for determining a discrimination index for fear-potentiated startle” (Rosalind Franklin University of Medicine and Science, priority 2018, dated 2023)
